Test results as given in patent US20120214830A1, “BIOLOGICAL MARKERS PREDICTIVE OF ANTI-CANCER RESPONSE TO INSULIN-LIKE GROWTH FACTOR-1 RECEPTOR KINASE INHIBITORS IN HEPATOCELLULAR CARCINOMA” (OSI Pharmaceuticals, LLC, priority 2011, published 2012).
pIC50: −log10 of the molar value.

Legend:
[1] = system: JHH-1; assay: Cell Titer-Glo proliferation assay, 72 h; type: cell-based; settings: Homo sapiens, JHH1; JHH-1 cells, erlotinib alone, determined beforehand; read-out: concentration to inhibit about 50% proliferation
Protocol: (§1) Two sensitive epithelial cell lines Hep3B (A), JHH-7 (B), one insensitive epithelial cell line JHH-1(C) or one insensitive mesenchymal-like cell line HLF (D) were treated serial dilution of OSI-906 in the presence of Erlotinib for 72 hours, and sensitivity to treatment was measured by proliferation assays.
(§2) Cell lines: Twenty-one HCC cell lines were purchased from either ATCC (HepG2, Hep3B, PLC/PRF/5, SK-Hepl, SNU-182, SNU-387, SNU-398, SNU-423, SNU-449, SNU-475) or Health Science Research Resources Bank (Japan) (HUH-1, HUH-6, HUH-7, HLE, HLF, JHH-1, JHH-2, JHH-4, JHH-5, JHH-6, JHH-7). All the cell lines were maintained in media as described by the vendors. For growth inhibition assays, cells were plated and allowed to proliferate for 24 hours. After 24 hours, cells had reached approximately 15% confluency, at which time serial dilutions of OSI-906 were added and the cells grown for a further 72 hours. Cell viability was assayed using the Cell Titer-Glo reagent (Promega Corp., Madison, Wis.).
(§3) Proliferation Assay. Proliferation was assayed using Cell Titer Glo assays (Promega) and was determined 72 hours following dosing with OSI-906. The basis of the assay is a luminescent quantitation of ATP present in a cell culture plate well. In essence, the greater the number of viable cells in the well, the greater the level of ATP present. The assay utilizes a substrate that binds ATP to produce a luminescent signal, which can be read on a luminometer. Unless otherwise noted, the manufacturer's instructions were followed exactly. Briefly, on Day 1, cells were plated in 120 μl of 10% serum-containing growth media at a density of 4000 cells/well in a white polystyrene 96 well assay plate. On day 2, cells were treated with 15 μl of 10× concentration of the IGF-1R inhibitor (e.g. OSI-906) or DMSO alone for a final well volume of 150 μl. After 72 h incubation with the inhibitor, the cells were assayed. Results were calculated as a fraction of the DMSO controlled cells.

[2] = system: Hep 3B; assay: Cell Titer-Glo proliferation assay, 72 h; type: cell-based; settings: Homo sapiens; Hep3B cells, erlotinib alone, determined beforehand; read-out: concentration to inhibit about 50% proliferation
Protocol: as §1, §2, §3

[3] = system: AFP expression in HUH-1, JHH-5 and HepG2 cells; assay: AFP expression by RT-PCR after TGFβ treatment; type: cell-based, human; settings: 10 ng/ml TGFβ for 10 days, HUH-1, JHH-5, HepG2
Protocol: FIG. 11: TGFβ decreases AFP expression and cell sensitivity to OSI-906. HUH-1, JHH-5 and HepG2 cells were treated with TGFβ and cells were either treated with OSI-906 for proliferation assays (A) or lysed to measure AFP expression by RT-PCR (B).
Taqman Assays: Total RNA was isolated with RNeasy kit (Qiagen) and treated with RNase-free DNase. Reverese transcription was performed with SuperScript III First-Strand Synthesis system (Invitrogen, Carlsbad, Calif.). The Gene Expression Assays were obtained from Applied Biosystems, Foster City, Calif. Quantitation of relative gene expression was conducted as described by the manufacturer using 50 ng of template. In order to determine relative expression across cell lines, amplification of AFP gene was compared to amplification of the gene for GAPDH as an internal standard.
(§4) TGFβ treatment: Cells were grown in medium supplemented with 10 ng/ml TGFβ (EMD Biosciences #616450) for 10 days with replating every 3-4 days. The cells were then lysed for either RT-PCR or CELLTITER-GLO® proliferation assays (Promega, Madison, Wis.).

[4] = system: ErbB3 in JHH5, HepG2, and HUH1 HCC cells; assay: ErbB3 protein expression after TGFβ treatment; type: cell-based, human; settings: data not shown
Protocol: Preparation of Protein Lysates and Western Blotting: Cells were rinsed with PBS and lysed in RIPA buffer (Sigma #R0278) containing protease and phosphatase inhibitor cocktails (Sigma #P2850, P8340, P5726). Cell lysates were cleared by centrifugation and subjected to western blotting. Antibodies included: E-cadherin (Santa Cruz #sc21791), ErbB3 (Santa Cruz #sc285), vimentin (BD Pharmingen #550513), Zebl (Santa Cruz #sc25388).
as §4

## C#Cc1cccc(Nc2ncnc3cc(OCCOC)c(OCCOC)cc23)c1 [Erlotinib, [6,7-bis(2-methoxyethoxy)-4-quinazolin-4-yl]-(3-ethynylphenyl) amine, reference compound]
[1]
  pIC50: 6.92
[2]
  pIC50: 5.48

## TGFβ
[3]
  AFP expression after TGFβ treatment: decreased
[4]
  expression of the epithelial biomarker protein ErbB3 after TGFβ treatment: decreased
